In article PMC6301270 (MedChemComm, 2018):

Tested on: T.b. brucei (strain 427) bloodstream form parasites
Experiment: T.b. brucei single concentration screen (10 μM)
Conditions: Trypanosoma brucei, read-out: T.b.brucei % viability (10 µM)

SMILES | viability at 10 µM
N#Cc1ccc(-c2ccc(OCC(N)=O)cc2)cc1 [MMV053220, NC(=O)COc1ccc(cc1)c2ccc(cc2)C#N] | 68%
CC(=O)N1CCc2cc3nc(C)cc(C)c3cc21 [MMV054312, CC(=O)N1CCc2cc3nc(C)cc(C)c3cc12] | 91%
Cc1cc(C)nc(-n2nc(C)cc2Nc2ccccc2)n1 [MMV062221, Cc1cc(C)nc(n1)n2nc(C)cc2Nc3ccccc3] | 103%
Cc1nn(Cc2ccccc2)c(Cl)c1C(=O)NC1CCCCCC1 [MMV063404, Cc1nn(Cc2ccccc2)c(Cl)c1C(=O)NC3CCCCCC3] | 96%
FC(F)(F)c1nnc2ccc(Cl)nn12 [MMV069458, FC(F)(F)c1nnc2ccc(Cl)nn12] | 100%
O=C1N(Cc2cc3ccccc3s2)CC2CN(Cc3ccccc3)CCN12 (stereo not drawn) [MMV084603, O=C1N(Cc2cc3ccccc3s2)CC4CN(Cc5ccccc5)CCN14] | 99%
O=C(Nc1cnc2ccccc2c1)c1cccc(-n2cnnn2)c1 [MMV084864, O=C(Nc1cnc2ccccc2c1)c3cccc(c3)n4cnnn4] | 80%
COc1cncc(-c2cncc(N3CCN(c4ccncc4)CC3)n2)c1 [MMV085071, COc1cncc(c1)c2cncc(n2)N3CCN(CC3)c4ccncc4] | 79%
O=C(C(Cc1c[nH]c2ccccc12)NS(=O)(=O)c1ccc(Cl)cc1)N1CCCCC1 (stereo not drawn) [MMV085210, Clc1ccc(cc1)S(=O)(=O)NC(Cc2c[nH]c3ccccc23)C(=O)N4CCCCC4] | 108%
CCCNC(=O)N1CCC2(CC1)CC(=O)c1cc(C)ccc1O2 [MMV085230, CCCNC(=O)N1CCC2(CC1)CC(=O)c3cc(C)ccc3O2] | 103%
N#Cc1ccc(-c2cnc(N)c(-c3ccc(C(N)=O)cc3)n2)cc1 [MMV085499, NC(=O)c1ccc(cc1)c2nc(cnc2N)c3ccc(cc3)C#N] | 31%
O=C(Nc1nnc(-c2ccc(Cl)cc2)o1)c1cccc(C(F)(F)F)c1 [MMV102872, FC(F)(F)c1cccc(c1)C(=O)Nc2oc(nn2)c3ccc(Cl)cc3] | 51%
CCC(C)NC(=O)c1ccc(NC(=O)C2(c3ccccc3)CCCC2)cc1 (stereo not drawn) [MMV146306, CCC(C)NC(=O)c1ccc(NC(=O)C2(CCCC2)c3ccccc3)cc1] | 69%
Cc1cc(Cl)ccc1NC(=O)CCc1ccc(S(=O)(=O)NCC(C)C)cc1 [MMV161996, CC(C)CNS(=O)(=O)c1ccc(CCC(=O)Nc2ccc(Cl)cc2C)cc1] | 97%
COc1ccc(C2(C(=O)Nc3ccc(Br)cc3)CCCC2)cc1 [MMV200748, COc1ccc(cc1)C2(CCCC2)C(=O)Nc3ccc(Br)cc3] | 100%
COc1ccc(OC(C)C(=O)Nc2ccc(Cl)cc2C)cc1 (stereo not drawn) [MMV202458, COc1ccc(OC(C)C(=O)Nc2ccc(Cl)cc2C)cc1] | 94%
COc1cccc(NC(=O)c2c(NC(=O)c3cccnc3)sc3c2CCC3)c1 [MMV228911, COc1cccc(NC(=O)c2c3CCCc3sc2NC(=O)c4cccnc4)c1] | 97%
COc1cccc(-c2cc3c(Nc4cccnc4)nccc3[nH]2)c1 [MMV392832, COc1cccc(c1)c2cc3c(Nc4cccnc4)nccc3[nH]2] | 101%
CN1CCN(c2nccc3[nH]c(-c4cccc(F)c4)cc23)CC1 [MMV393144, CN1CCN(CC1)c2nccc3[nH]c(cc23)c4cccc(F)c4] | 59%

SMILES | viability at 10 µM
Cc1cc(O)nc(-n2nc(C)cc2C)n1 [MMV393995, Cc1cc(O)nc(n1)n2nc(C)cc2C] | 71%
CCc1nc2ccc(C(=O)NCc3ccc4c(c3)OCO4)cn2c1N(C)Cc1cccs1 [MMV407539, CCc1nc2ccc(cn2c1N(C)Cc3cccs3)C(=O)NCc4ccc5OCOc5c4] | 82%
CCOc1ccccc1NC(C)C(=O)Nc1cc(C(F)(F)F)ccc1N1CCOCC1 (stereo not drawn) [MMV407834, CCOc1ccccc1NC(C)C(=O)Nc2cc(ccc2N3CCOCC3)C(F)(F)F] | 104%
CS(=O)(=O)Cc1nc2ccccc2oc1=O [MMV553002, CS(=O)(=O)CC1=Nc2ccccc2OC1=O] | 114%
c1ccc(-c2cc(N3CCCCC3)c3ccccc3n2)nc1 [MMV560185, C1CCN(CC1)c2cc(nc3ccccc23)c4ccccn4] | 112%
CCC(Sc1nc2ccccc2o1)C(=O)Nc1nnc(C)s1 (stereo not drawn) [MMV611037, CCC(Sc1oc2ccccc2n1)C(=O)Nc3nnc(C)s3] | 113%
O=C(NCCN1CCCC1)c1cc(NCCN2CCOCC2)nc2ccc(Cl)cc12 [MMV634140, Clc1ccc2nc(cc(c2c1)C(=O)NCCN1CCCC1)NCCN1CCOCC1] | 89%
Cc1nc(-c2ccccn2)nc(N(C)CCc2ccccc2)c1Cl [MMV658988, CN(CCc1ccccc1)c2nc(nc(C)c2Cl)c3ccccn3] | 95%
Cc1nc(-c2ccccn2)nc(NCCc2ccc(S(C)(=O)=O)cc2)c1Cl [MMV658993, Cc1nc(nc(NCCc2ccc(cc2)S(=O)(=O)C)c1Cl)c3ccccn3] | 102%
Cc1nc(-c2ccccn2)nc(N2CCC(Cc3ccccc3)C2)c1Cl (stereo not drawn) [MMV659004, Cc1nc(nc(N2CCC(Cc3ccccc3)C2)c1Cl)c4ccccn4] | 109%
FC(F)(F)c1cc(NCCc2ccccc2)nc(-c2ccccn2)n1 [MMV659010, FC(F)(F)c1cc(NCCc2ccccc2)nc(n1)c3ccccn3] | 82%
Brc1cncc(-c2cc(NCCCn3ccnc3)nc(-c3ccccc3)n2)c1 [MMV661713, Brc1cncc(c1)c2cc(NCCCn3ccnc3)nc(n2)c4ccccc4] | 98%
Clc1cccc(C(c2ccc(CN3CCNCC3)cc2)n2ccnc2)c1 (stereo not drawn) [MMV663250, Clc1cccc(c1)C(c2ccc(CN3CCNCC3)cc2)n4ccnc4] | 75%
O=C(NCCN1CCCC1)c1cc(NCCCCN2CCC(F)(F)CC2)nc2ccc(Cl)cc12 [MMV667494, FC1(F)CCN(CCCCNc2cc(c3cc(ccc3n2)Cl)C(=O)NCCN2CCCC2)CC1] | 56%
Nc1ncc(-c2ccc(C(F)(F)F)nc2)cc1-c1ccc(C(F)(F)F)nc1 [MMV668727, Nc1ncc(cc1c2ccc(nc2)C(F)(F)F)c3ccc(nc3)C(F)(F)F] | 75%
Cc1[nH]c2cc(F)cc(F)c2c(=O)c1-c1ccc(Oc2ccc(OC(F)(F)F)cc2)cc1 [MMV671636, CC1=C(C(=O)c2c(F)cc(F)cc2N1)c3ccc(Oc4ccc(OC(F)(F)F)cc4)cc3] | 101%
CC(C)(C)c1ccc(N[C@@H]2CCCC[C@H]2NC(=O)c2ccco2)cc1 [MMV675969, CC(C)(C)c1ccc(N[C@@H]2CCCC[C@H]2NC(=O)c3occc3)cc1] | 114%
COc1ccc(-c2nn(C(C)C)c3ncnc(N)c23)cc1OC [MMV675993, COc1ccc(cc1OC)c2nn(C(C)C)c3ncnc(N)c23] | 38%
Clc1ccc(-n2cc(COc3ccnc4ccccc34)nn2)cc1 [MMV675994, Clc1ccc(cc1)n2cc(COc3ccnc4ccccc34)nn2] | 91%

SMILES | viability at 10 µM
COc1ccc(N(CCc2cccc(C)n2)C(C)=O)cc1 [MMV675995, COc1ccc(cc1)N(CCc2cccc(C)n2)C(=O)C] | 108%
COc1ccc(N(CCc2cccc(C)n2)C(=O)C2CCCCC2)cc1 [MMV675996, COc1ccc(cc1)N(CCc2cccc(C)n2)C(=O)C3CCCCC3] | 107%
N#CCN(CCCCN1CCN(c2ccc(F)cc2)CC1)C(=O)OCc1ccccc1 [MMV675997, Fc1ccc(cc1)N2CCN(CCCCN(CC#N)C(=O)OCc3ccccc3)CC2] | 97%
O=C(Nc1c(O)cccc1-c1nc2c(C(=O)O)cccc2o1)c1cc(-c2ccccc2)on1 [MMV676008, OC(=O)c1cccc2oc(nc12)c3cccc(O)c3NC(=O)c4cc(on4)c5ccccc5] | 110%
Clc1ccc(Cl)c(CO[C@H]2CCCC[C@@H]2n2ccnc2)c1 [MMV676048, Clc1ccc(Cl)c(CO[C@H]2CCCC[C@@H]2n3ccnc3)c1] | 104%
CS(=O)(=O)N1CCC(Cn2nc(Cc3cccc4ccccc34)c3c(N)ncnc32)CC1 [MMV676050, CS(=O)(=O)N1CCC(Cn2nc(Cc3cccc4ccccc34)c5c(N)ncnc25)CC1] | 117%
COc1cc(NC(=O)Cc2nn(C)c(=O)c3ccccc23)ccc1Cl [MMV676053, COc1cc(NC(=O)CC2=NN(C)C(=O)c3ccccc23)ccc1Cl] | 100%
CC(C)(C)OC(=O)N1CCN(c2cc(-c3ccc(Oc4ccccc4)cc3)n[nH]2)CC1 [MMV676057, CC(C)(C)OC(=O)N1CCN(CC1)c2cc(n[nH]2)c3ccc(Oc4ccccc4)cc3] | 21%
CCCCc1ccc(NC(=O)Nc2ccc(O[C@H]3CCCC[C@@H]3N(C)c3ccccc3)c(F)c2)cc1 [MMV676063, CCCCc1ccc(NC(=O)Nc2ccc(O[C@H]3CCCC[C@@H]3N(C)c4ccccc4)c(F)c2)cc1] | 91%
CC(=O)N(CCN(C(=O)c1ccc(F)cc1)c1ccccc1)c1ccccc1 [MMV676064, CC(=O)N(CCN(C(=O)c1ccc(F)cc1)c2ccccc2)c3ccccc3] | 100%
Clc1cccc(CO[C@H]2CCc3ccccc3[C@@H]2n2ccnn2)c1 [MMV676159, Clc1cccc(CO[C@H]2CCc3ccccc3[C@@H]2n4ccnn4)c1] | 96%
c1ccc(Oc2ccc(-c3cc(CN4CCOCC4)[nH]n3)cc2)cc1 [MMV676161, C(N1CCOCC1)c2cc(n[nH]2)c3ccc(Oc4ccccc4)cc3] | 43%
O=C(Nc1ccccc1-c1nc2c(C(=O)O)cccc2o1)c1ccccc1 [MMV676162, OC(=O)c1cccc2oc(nc12)c3ccccc3NC(=O)c4ccccc4] | 101%
Nc1ncnc2c1c(Cc1cccc3ccccc13)nn2CC1CCNCC1 [MMV676182, Nc1ncnc2c1c(Cc3cccc4ccccc34)nn2CC5CCNCC5] | 98%
COC(=O)c1cccc2oc(-c3cccc(OC)c3NC(=O)c3cc(-c4ccccc4)on3)nc12 [MMV676186, COC(=O)c1cccc2oc(nc12)c3cccc(OC)c3NC(=O)c4cc(on4)c5ccccc5] | 90%
CC(C)C(Oc1cccc2ccccc12)C(=O)O (stereo not drawn) [MMV676191, CC(C)C(Oc1cccc2ccccc12)C(=O)O] | 103%
O=C(c1ccc(F)cc1)N(CCNc1ccccc1)c1ccccc1 [MMV676204, Fc1ccc(cc1)C(=O)N(CCNc2ccccc2)c3ccccc3] | 97%
CN1CCN(c2nccc3nc(-c4ccc(F)c(F)c4)[nH]c23)CC1 [MMV676260, CN1CCN(CC1)c2nccc3nc([nH]c23)c4ccc(F)c(F)c4] | 49%
C[C@H](C(N)=O)N1CCCC[C@H]1c1ccc(OCc2cccc(F)c2)cc1 [MMV676269, C[C@@H](N1CCCC[C@H]1c2ccc(OCc3cccc(F)c3)cc2)C(=O)N] | 92%
